The test system of one data set is Vero cells. In words: Cell proliferation assay (MTS tetrazolium, absorbance 490 nm). Type of data set: cell-based, green monkey. As to conditions: for absorbance at 490 nm (single reading): 1 hour, read 24 hours later; for inhibition of cell proliferation: up to 75 μM, compared to controls. As to the method:
A cell proliferation kit (G5421, Promega Corp.) was used. This is a colorimetric method for determining cell proliferation. This kit contains a tetrazolium compound and an electron-coupling reagent (phenazine methosulfate). Only live cells will be able to bioreduce the tetrazolium compound into soluble formazan. Thus, the amount of formazan formed and measured at 490 nm absorbance is directly proportional to the number of live cells. Cells were plated into 96 well plates and after 24 hrs they were treated with different concentrations (12.5, 25, 50, 75, 100 μM) of polyphenols and allowed to adsorb for 1 hour. Polyphenols were then aspirated and 100 μL of fresh DMEM was added back to each well. 24 hours later, 20 μL of the MTS reagent was added to every 100 μL of cells in media. The plates were incubated at 37° C. and 5% CO2 for 4 hours, and then the absorbance was read using a plate reader. […] In this study, cell proliferation was examined under the same conditions as described before. Each experiment was assayed in triplicates, and absorbance of this colorimetric assay was recorded at 490 nm using a 96 well ELISA plate reader.

For a further data set, the system named is HSV1. Description: PCR-based assay of viral DNA, band intensity on agarose gel. Type of data set: cell-based. The conditions noted are these: for DNA band intensity, primers for glycoprotein D, GFP and VP11/12: HSV1 treated with 75 μM. From the text: Nine sets of primers were designed to prime different regions of the HSV1 genome based on published sequences. Two sets of primers were designed to target HSV I glycoprotein D. These include 5′-[…]-3′ (SEQ ID NO:2) for the forward and 5′-[…]-3′ (SEQ ID NO:3) for the reverse. The second set includes 5′-[…]-3′ (SEQ ID NO:4) for the forward and 5′[…]-3′ (SEQ ID NO:5) for the reverse. Next, two sets of primers were designed to target HSV1 glycoprotein B. They are the following: 5′[…]-3′ (SEQ ID NO:6) for the forward and 5′-[…]-3′ (SEQ ID NO:7) for the reverse. The second set includes 5′-[…]-3′(SEQ ID NO:8) for the forward and 5′-[…]-3′ (SEQ ID NO:9) for the reverse. A third set of primers had been previously designed and published on the book Herpes Simplex Virus Protocols by S. Moira Brown and Alasdair R. MacLean. The set includes 5′[…]-3′ (SEQ ID NO:10) for the forward and 5′-[…]-3′ (SEQ ID NO:11) for the reverse. A set of primers was designed to target the Green Fluorescent protein attached to the UL46 gene of HSV 1. It includes 5′-[…]-3′ (SEQ ID NO:14) for the forward and 5′-[…]-3′ (SEQ ID NO:15) for the reverse. A second set of primers designed for the GFP had been previously designed 42. It includes 5′-[…]-3′ (SEQ ID NO:12) for the forward and 5′-[…]-3′ (SEQ ID NO:13) for the reverse. Finally, two sets of primers were designed to target HSV1 tegument protein VP11/12 that corresponds to the UL46 gene. They are the following: 5′-[…]-3′ (SEQ ID NO:16) for the forward and 5′-[…]-3′ (SEQ ID NO:17) for the reverse. The second set includes 5′-[…]-3′ (SEQ ID NO:18) for the forward and 5′[…]-3′ (SEQ ID NO:19) for the reverse. The reaction mix included 1 μL of the extracted DNA, 1 μL of forward and 1 μL of reverse primers, 12.5 μL of Master Mix, and 9.5 μL of diH2O. The mix was put into PCR tubes and placed into a Labnet MultiGene II thermal cycler (Labnet International, Edison N.J.). The reaction profile was initial denaturation at 95° C. for 2 minutes followed by cycles of denaturation at 95° C. for 30 seconds, annealing at 60° C. for 1 minute and extension at 72° C. for 30 seconds. The last step included a final extension period at 72° C. for 10 minutes. […]
Polymerase chain reaction products were analyzed and visualized on 1% agarose gels. […] The gel was then analyzed under UV light using Kodak Image Station 440 CF (Perkin Elmer Life Sciences, Waltham, Mass.).
Cells were grown on 60 mm plates and allowed to reach confluency. […] DNA concentration was then measured by using a Nanodrop Specrophotometer.
DNA extracted from HSV1/Vero cells and EGCG-ester HSV1/Vero cells was purified and isolated and the amount and purity was determined by Nanodrop spectrophotometer ND1000. […]

For data set [1] the following is noted: for a topical application; cited from earlier work.
In data set [2] the test system is HSV-1. As to conditions: cited from earlier work.
The next data set relates to HSV-2. The conditions noted are these: Vero cells; cited from earlier work.
Data set [3] concerns HSV-1. The conditions noted are these: antibodies against gB, gD, and a capsid protein; cited from earlier work.
Data set [4] is described as follows: Stability of the polyphenol (statements, no method). It counts as physicochemical. The conditions noted are these: vaginal pH.

Where “and” joins values, the source holds several entries; their conditions need not be identical. Equal entries are not always repeated. Where two headings read alike, the source gives them in different places.

Here are results for 2 compounds from patent US9446017B2, “Compositions and methods for treating herpes simplex virus” (Augusta University Research Institute, Inc., priority 2005, dated 2016).

As to `O=C(O[C@@H]1Cc2c(O)cc(O)cc2O[C@@H]1c1cc(O)c(O)c(O)c1)c1cc(O)c(O)c(O)c1` [EGCG, (−)-epigallocatechin-3-gallate, reference compound], the “absorbance at 490 nm, Mean” value in the data set with Vero cells (12.5 μM) worked out at 0.607; in the data set with Vero cells (25 μM) it was 0.621; with Vero cells (50 μM), 0.603; with Vero cells (75 μM), 0.647; with Vero cells (100 μM), 0.698. Moreover, the “absorbance at 490 nm (single reading)” value in the data set on Vero cells (12.5 μM) is 0.615 and 0.606 and 0.601; in the data set with Vero cells (25 μM), 0.628 and 0.620 and 0.616; in the data set on Vero cells (50 μM), 0.632 and 0.587 and 0.589; with Vero cells (75 μM) it was 0.645 and 0.652; in the data set with Vero cells (100 μM), 0.688 and 0.677 and 0.730. Also, the “inhibition of cell proliferation” value in the data set with Vero cells was “not inhibiting cell proliferation to a great extent”. Moreover, the “DNA band intensity, primers for glycoprotein D, GFP and VP11/12” value in the data set with HSV1 is reported as “decreased”. Also, in data set [1], the stability entry was “highly unstable and oxidizes very quickly”. Moreover, in the data set on HSV-1 [2] (Vero cells treated following adsorption and entry of HSV-1), the viral production result is listed as “does not inhibit the viral production”. Further, the “inhibition of HSV infection” value in the data set on HSV-1 [2] (Vero cells) and in the data set with HSV-2 was “successfully inhibited HSV infection in a concentration dependent manner” each time. Also, the “drop in immunogold labeling, treated compared to untreated virions” value with HSV-1 [3] is 30% and 40%.

As to `CCCCCCCCCCCCCCCC(=O)Oc1c(O)cc([C@H]2Oc3cc(O)cc(O)c3C[C@H]2OC(=O)c2cc(O)c(O)c(O)c2)cc1O` [EGCG-ester], the “absorbance at 490 nm, Mean” value in the data set with Vero cells (12.5 μM) is listed as 0.627; in the data set on Vero cells (25 μM), 0.647; in the data set on Vero cells (50 μM) it was 0.676; in the data set with Vero cells (75 μM), 0.653; in the data set with Vero cells (100 μM) it was 0.717. For the same compound, the “absorbance at 490 nm (single reading)” value in the data set with Vero cells (12.5 μM) was 0.642 and 0.647 and 0.574; in the data set on Vero cells (25 μM), 0.668 and 0.651 and 0.621; in the data set on Vero cells (50 μM), 0.663 and 0.698 and 0.667; in the data set with Vero cells (75 μM) it was 0.582 and 0.689 and 0.687; with Vero cells (100 μM), 0.691 and 0.741 and 0.719. Also, the “inhibition of cell proliferation” value with Vero cells was “not inhibiting cell proliferation to a great extent”. Besides, the “band intensity of glycoprotein D PCR product, average” value in the data set with HSV1 (75 μM, control average 525.29) was 400.05. In addition, in the data set with HSV1 (75 μM, control readings 445.92, 588.24, 541.73), the “band intensity of glycoprotein D PCR product (single reading)” value is 353.87 and 438.47 and 407.82. In the data set with HSV1, the “DNA band intensity, primers for glycoprotein D, GFP and VP11/12” value is on record as “further decreased”. For the same compound, the stability result in data set [4] is recorded as “stable at vaginal pH”.
